Key:
human FLT3−ITD+AML cells = experiment: In vivo treatment of AML-engrafted NSG recipients (PDX model); set-up: species or system NSG mice
Method: NSG newborns received 1.5Gy total body irradiation followed by intravenous injection of purified human cells. Donor cells were purified according to their cell surface phenotype using monoclonal antibodies against human CD34, CD38, CD90, CD45RA, CD3, CD19 and CD33. Engraftment levels of human cells in the NSG recipients were assessed by retro-orbital phlebotomy and flow cytometry.
(§1) In vivo treatment experiments were performed with AML-engrafted NSG recipients using RK-20449 (Ref. STM 2013) and ABT-199 (Souers A J et al., Nature Medicine 2013, Pan R et al., Cancer Discovery 2014). The recipients were administered RK-20449 intraperitoneally 30 mg/kg twice a day, ABT-199 orally 70 mg/kg once a day or both RK-20449 and ABT-199 at these dosing schedules. The mice were sacrificed when they became moribund or after 4˜6 weeks of treatment, and human AML chimerisms in BM, spleen and PB were determined using flow cytometry. In secondary transplantation, each mouse received 7-AAD(-) viable human CD45+cells from 2.5% of total BM that remained in AML-engrafted recipients at the time of sacrifice, to simulate relapse occurring from residual viable AML cells.
These studies examined whether inhibition of a mutated kinase alone eliminates AML in vivo using a NSG PDX model. Patient-derived cells with a FLT3−ITD mutation engraft in vivo and initiate AML, but the individual FLT3−ITD+cells harbor multiple other mutations in various combinations. These mutations may contribute to therapy responsiveness in cooperation with FLT3−ITD, and a PDX model that reflects mutational complexity of human AML cells is necessary to examine the contribution of multiple co-existing mutations. Therefore, the frequency of AML-associated somatic mutations was evaluated in the disclosed PDX model using newborn NSG xenotransplantation, and the same sets of mutations were present in patient-derived leukemia-initiating population and engrafted AML cells in recipients (see, FIG. 4). […] The extent that targeting FLT3 pathway alone can result in reduction of human AML cells harboring multiple mutations in vivo was examined as follows. RK-20449 is a pyrrolo-pyrimidine-derivative multi-kinase inhibitor of Src family kinase HCK and FLT3 that effectively target human AML cells. Therefore, RK-20449 was administered to 58 NSG mice engrafted with AML from 19 FLT3−ITD+AML patients and the results are shown in FIG. 8.

[1] = tested on: residual viable human CD45+AML cells (leukemia-initiating capacity); experiment: Secondary (serial) transplantation of residual human AML cells after in vivo treatment; set-up: species or system NSG mice; details: 2.5% of residual viable human CD45+ cells transplanted per secondary recipient; single-agent groups
Method: as §1
Leukemia-initiating capacity remaining after treatment was compared by isolating residual viable human CD45+AML cells from each treated mouse and transplanting a pre-determined fraction into secondary NSG recipients.

Compound | response to ABT-199 alone (human FLT3−ITD+AML cells; ABT-199 orally 70 mg/kg once a day, majority of cases) | AML initiation in secondary recipients from treated BM [1] | residual BM human CD45+chimerism (human FLT3−ITD+AML cells; RK-20449 alone 30 mg/kg i.p. twice a day, five patients with complete responses, every recipient treated) | response in the spleen (human FLT3−ITD+AML cells; RK-20449 alone, 11 additional cases) | response of FLT3−ITD+human AML cells to single agent in vivo (human FLT3−ITD+AML cells; all 19 cases tested) | remaining AML cells in BM, spleen and PB (human FLT3−ITD+AML cells; flow cytometry and immunohistochemistry, complete-responder patients, all recipients treated) | BCL-2 dependence for leukemia cell survival (human FLT3−ITD+AML cells; in vivo kinase inhibition) | cases with residual AML cells in the BM of at least one treated mouse (human FLT3−ITD+AML cells; single agent RK-20449)
CC1(C)CCC(CN2CCN(c3ccc(C(=O)NS(=O)(=O)c4ccc(NCC5CCOCC5)c([N+](=O)[O-])c4)c(Oc4cnc5[nH]ccc5c4)c3)CC2)=C(c2ccc(Cl)cc2)C1 [ABT-199, reference compound] | limited responses | every secondary recipient | – | – | – | – | – | –
CN1CCN([C@H]2CC[C@H](n3cc(-c4ccc(Oc5ccccc5)cc4)c4c(N)ncnc43)CC2)CC1 [RK-20449, 7-((1R,4R)-4-(4-methylpiperazin-l-yl)cyclohexyl)-5-(4-phenoxyphenyl)-7H-pyrrolo[2,3-d]pyrimidin-4-amine] | – | every secondary recipient | < 5% | complete responses in the spleen in a majority of recipients tested | significant responses | less than 0.01% | enhanced | 14 of 19
